Experiment [1] has as its system LNCaP cells. The experiment can be described thus: XTT cell proliferation (cell viability) assay in LNCaP cells. The experiment is classed as cell-based. The note with it: Homo sapiens, mean±S.E.M., read-out: IC50 (anti-proliferative activity, XTT). As to the method:
(§1) Human metastatic prostate cancer cells, LNCaP, were obtained from ATCC (Manassas, Va., USA). Cells were grown in RPMI-1640 medium supplemented with 2mM glutamine, 10% FBS, 100 U/mL penicillin, and 100 μg/mL streptomycin. LNCaP cells were maintained in a humidified atmosphere of 5% CO2 at 37° C. in T-75 flasks and were subcultured when confluent. Experiments were conducted using cells with passage numbers ranging from 5-20.
The anti-proliferative effect of carvacrol was assessed in human metastatic prostate cancer cells, LNCaP, using the XTT cell proliferation assay. This assay is a colorimetric assay that detects cellular metabolic activities. In this assay, the second generation tetrazolium dye XTT (2,3-bis (2-methoxy-4-nitiro-5-sulfophenyl)-5-[(phenylamino)-carbonyl]-2H tetrazolium hydroxide), is reduced to a soluble, brightly orange colored formazan derivative. To improve the sensitivity of XTT assay, PMS (N-methyl dibenzopyrazine methyl sulfate), an intermediate electron carrier is used. This color change is accomplished by breaking apart the positively charged quaternary tetrazole ring. Mitochondrial oxidoreductases present in viable cells are thought to contribute substantially to the XTT response with their reductants being transferred to the plasma membrane.
LNCaP cells at the density of 10,000 cells/well were seeded into flat-bottom, 96-well microtiter plates (100 μL/well) and allowed to attach and grow for 24 hours, the cells were then treated with 0.1 μM, 1 μM, 10 μM, 100 μM, 1000 μM, and 3000 μM of carvacrol for 24, 48, and 96 hours. […] After incubation, an orange colored formazan product was formed and the absorbance was read at 475 nm using BioTek microplate reader. […] Cell viability of the drug-treated cells was calculated as a fraction of solvent control and the anti-proliferative activity of carvacrol was expressed in terms in IC50 valuesIC50 values of carvacrol were calculated using GraphPad Prism 4 (GraphPad Software Inc., Calif., USA), and are expressed as the means of ±S.E.M> of n≧4 experiments, with triplicate determinations in each experiment. […]

Experiment [2] deals with LNCaP cells. Briefly: DNA fragmentation assay (Apoptotic DNA-Ladder Kit) in LNCaP cells. The note with it: 10 μM and 1000 μM, 48 hours. Format: cell-based, Human. Here is the method:
as §1
During apoptosis, pro-apoptotic proteins such as apoptosis-inducing factor (AIF), endonuclease G, and caspase-activated DNase (CAD) are released from the mitochondria, which occur after the cell has committed to die. AIF, after translocation to the nucleus, causes DNA fragmentation (˜50-300 kb pieces) and peripheral nuclear chromatin condensation which is referred to as “stage 1” condensation. Endonuclease G also cleaves nuclear chromatin to produce oligonucleosomal DNA fragments following its translocation to the nucleus. Both, AIF and endonuclease G function in caspase-independent manner. CAD subsequently released from mitochondria, after getting cleaved by activated caspase-3, is known to translocate into the nucleus leading to oligonucleosomal cleavage of DNA into 180 by fragments and a more pronounced chromatin condensation referred to as “stage 11” condensation.
This cleaved DNA is easily observed as a “ladder” upon analysis by gel electrophoresis. […]

The test system of experiment [3] is PC-3 cells. The experiment can be described thus: XTT cell proliferation (cell viability) assay in PC-3 cells. The experiment is classed as cell-based. The note with it: Homo sapiens, mean±S.E.M., read-out: IC50 (anti-proliferative activity, XTT). Here is the method:
Cell Line and Culture Conditions • Human metastatic, androgen insensitive prostate cancer cells, PC-3, were obtained from ATCC (Manassas, Va., USA). Cells were grown in F-12K medium supplemented with 2 mM glutamine, 10% FBS, 100 U/mL penicillin, and 100 μg/mL streptomycin. PC-3 cells were maintained in a humidified atmosphere of 5% CO2 at 37° C. in T-75 flasks and were subcultured when confluent.
The anti-proliferative effect of carvacrol was assessed in PC-3 cells using the XTT cell proliferation assay. This assay is a colorimetric assay that is used to measure cell growth and drug sensitivity in tumor cell lines by measuring the internal environment of the proliferating cell, which is more reduced than that of non-proliferating cells. In this assay, the second generation tetrazolium dye, XTT (2,3-bis(2-methoxy-4-nitro-5-sulfophenyl)-5-[(phenylamino)-carbonyl]-2H tetrazolium hydroxide), is reduced to a soluble, brightly orange colored formazan derivative. To improve the sensitivity of XTT assay, PMS (N-methyl dibenzopyrazine methyl sulfate), an intermediate electron carrier is used. This color change is accomplished by breaking apart the positively charged quaternary tetrazole ring. An expansion in the number of viable cells results in an increase in the overall activity of mitochondrial dehydrogenases in the sample. […]
PC-3 cells at a density of 10^4 cells/well were seeded into flat-bottom, 96-well microtiter plates (100 μL/well) and allowed to attach and grow for 24 h. […] After incubation, an orange colored formazan product was formed and the absorbance was measured at 475 nm using BioTek microplate reader. […] Cell viability of the drug-treated cells was calculated as a fraction of solvent control and the anti-proliferative activity of carvacrol was expressed in terms of IC50 values. IC50 values were calculated using GraphPad Prism 4 (Graph Pad Software Inc., Calif., USA), and expressed as the means±S.E.M. of n≧3 experiments (each in triplicate).

Read-outs that look alike come from different tables or passages of the source.

In the case of `Cc1ccc(C(C)C)cc1O` [Carvacrol], the IC50 was 1670 ± 179 µM in experiment [1] (24 hours treatment); 269 ± 58 µM in experiment [1] (48 hours treatment); 13.7 ± 4.42 µM in experiment [1] (96 hours treatment); 2250 ± 79.8 µM in experiment [3] (24 hr treatment); 1400 ± 98.2 µM in experiment [3] (48 hr treatment); 1010 ± 63.5 µM in experiment [3] (96 hr treatment). In addition, the “fragmentation of DNA” value in experiment [2] was “Fragmentation of DNA was observed”.

(Values after patent publication US20140100290A1, “Method of treating a prostate condition” (priority 2012, published 2014).)
